Our source for the melting point values is patent US20030203966A1, “Nitromethylthiobenzene derivatives as aldose reductase inhihibitors” (priority 1996, published 2003).

Structures can show the parent of a compound that is named as a salt.

Usually melting point stands for the temperature of the solid-liquid transition. `Cc1cc(NS(=O)(=O)c2ccc3ccccc3c2)cc(C)c1S(=O)(=O)C[N+](=O)[O-]` [Example 15, N-[3,5-Dimethyl-4-[(nitromethyl)sulphonyl]phenyl]-2-naphthalenesulphonamide] gave a melting point of 208 to 215 °C.
`CC(=O)Nc1ccc(S(=O)(=O)Nc2cc(C)c(S(=O)(=O)C[N+](=O)[O-])c(C)c2)cc1Cl` [Example 43, N-[2-Chloro-4-[3,5-dimethyl-4-[(nitromethyl)sulphonyl]-phenylsulphamoyl]phenyl]acetamide] gave a melting point of 209 to 211 °C.
Next, `Cc1ccc(S(=O)(=O)NC(=O)Nc2cc(C)c(S(=O)(=O)C[N+](=O)[O-])c(C)c2)cc1` [Example 21, 1-[3,5-Dimethyl-4-[(nitromethyl)sulphonyl]phenyl]-3-[(4-methylphenyl)sulphonyl]urea]: 150 to 155 °C; `COc1cccc(S(=O)(=O)Nc2cc(C)c(S(=O)(=O)C[N+](=O)[O-])c(C)c2)c1` [Example 46, N-[3,5-Dimethyl-4-[(nitromethyl)sulphonyl]phenyl]-3-methoxybenzenesulphonamide]: 166 to 168 °C.
`Cc1cc(NS(=O)(=O)c2ccc(-c3ccccc3)cc2)cc(C)c1S(=O)(=O)C[N+](=O)[O-]` [Example 39, N-[3,5-Dimethyl-4-[(nitromethyl)sulphonyl]phenyl]-4-biphenylsulphonamide]: the melting point was 206 to 208 °C (dec.).
`Cc1cc(NS(=O)(=O)c2c(F)c(F)c(F)c(F)c2F)cc(C)c1S(=O)(=O)C[N+](=O)[O-]` [Example 37, N-[3,5-Dimethyl-4-[(nitromethyl)sulphonyl]phenyl]-2,3,4,5,6-pentafluorobenzenesulphonamide] had a melting point of 128 to 130 °C.
Compound `Cc1cc(NS(=O)(=O)CC2CCCCC2)cc(C)c1S(=O)(=O)C[N+](=O)[O-]` [Example 53, N-[3,5-Dimethyl-4-[(nitromethyl)sulphonyl]phenyl]-cyclohexylmethanesulphonamide] yielded a melting point of 126 to 128 °C.
Compound `Cc1cc(NS(=O)(=O)c2cccnc2)cc(C)c1S(=O)(=O)C[N+](=O)[O-]` [Example 47, N-[3,5-Dimethyl-4-[(nitromethyl)sulphonyl]phenyl]-3-pyridinesulphonamide] had a melting point of 191 to 192 °C.
With `CC(=O)Nc1cccc(S(=O)(=O)Nc2cc(C)c(S(=O)(=O)C[N+](=O)[O-])c(C)c2)c1` [Example 50, N-[3[[3,5-Dimethyl-4-[(nitromethyl)sulphonyl]phenylamino]sulphonyl]phenyl]acetamide] the figure was 108 to 110 °C; with `Cc1ccccc1S(=O)(=O)NC(=O)Nc1cc(C)c(S(=O)(=O)C[N+](=O)[O-])c(C)c1` [Example 20, 1-[3,5-Dimethyl-4-[(nitromethyl)sulphonyl]phenyl]-3-[(2-methylphenyl)sulphonyl]urea], 194 to 196 °C; with `Cc1cc(NS(=O)(=O)c2cccc(S(=O)(=O)Nc3cc(C)c(S(=O)(=O)C[N+](=O)[O-])c(C)c3)c2)cc(C)c1S(=O)(=O)C[N+](=O)[O-]`, 191 to 192 °C.
`Cc1cc(NS(=O)(=O)c2cc(F)c(Br)cc2F)cc(C)c1S(=O)(=O)C[N+](=O)[O-]` (as salt: acetate) [Example 27, 4-Bromo-2,5-difluoro-N-[3,5-dimethyl-4-[(nitromethyl)-sulphonyl]phenyl]benzenesulphonamide] returned a melting point of 167 to 169 °C.
The compound `Cc1cc(N(C(=O)CCC(N)=O)c2cc(C)c(S(=O)(=O)C[N+](=O)[O-])c(C)c2)cc(C)c1S(=O)(=O)C[N+](=O)[O-]` showed a melting point of 226 to 228 °C.
Consider `Cc1cccc(S(=O)(=O)Nc2cc(C)c(S(=O)(=O)C[N+](=O)[O-])c(C)c2)c1` [Example 6, N-[3,5-Dimethyl-4-[(nitromethyl)sulphonyl]phenyl]-3-methylbenzenesulphonamide], for which the melting point fell in the range of 179 to 181 °C.
With `Cc1cc(NS(=O)(=O)c2cccc(C(F)(F)F)c2)cc(C)c1S(=O)(=O)C[N+](=O)[O-]` [Example 9, N-[3,5-Dimethyl-4-[(nitromethyl)sulphonyl]phenyl]-3-(trifluoromethyl)benzenesulphonamide] the figure was 146 to 148 °C; with `Cc1cc(NS(=O)(=O)CC(F)(F)F)cc(C)c1S(=O)(=O)C[N+](=O)[O-]` [Example 23, N-[3,5-Dimethyl-4-[(nitromethyl)sulphonyl]phenyl]-2,2,2-trifluoroethanesulphonamide], 168 to 170 °C.
With `Cc1cc(NS(=O)(=O)c2ccccc2)cc(C)c1S(=O)(=O)C(Cl)(Cl)[N+](=O)[O-]` [Example 33, N-[4-[(Dichloronitromethyl)sulphonyl]-3,5-dimethylphenyl]benzenesulphonamide] the figure was 112 to 114 °C; with `Cc1cc(NS(=O)(=O)c2cc(F)ccc2F)cc(C)c1S(=O)(=O)C[N+](=O)[O-]` [Example 28, 2,5-Difluoro-N-[3,5-dimethyl-4-[(nitromethyl)sulphonyl]phenyl]benzenesulphonamide], 132 to 134 °C; with `Cc1cc(NS(=O)(=O)Cc2cccc(CS(=O)(=O)Nc3cc(C)c(S(=O)(=O)C[N+](=O)[O-])c(C)c3)c2)cc(C)c1S(=O)(=O)C[N+](=O)[O-]`, 124 to 130 °C.
Turning to `Cc1cc(NS(=O)(=O)c2ccc(C(F)(F)F)cc2)cc(C)c1S(=O)(=O)C[N+](=O)[O-]` [Example 35, N-[3,5-Dimethyl-4-[(nitromethyl)sulphonyl]phenyl]-4-(trifluoromethyl)benzenesulphonamide], the melting point fell in the range of 187 to 188 °C.
On to `Cc1cc(NS(=O)(=O)/C=C/c2ccccc2)cc(C)c1S(=O)(=O)C[N+](=O)[O-]` [Example 19, (E)-N-[3,5-Dimethyl-4-[(nitromethyl)sulphonyl]phenyl]-styrenesulphonamide], for which the melting point is 174 to 176 °C.
On to `Cc1cc(NS(=O)(=O)c2ccc(Cl)cc2)cc(C)c1S(=O)(=O)C[N+](=O)[O-]` [Example 5, 4-Chloro-N-[3,5-dimethyl-4-[(nitromethyl)sulphonyl]-phenyl]benzenesulphonamide], for which the melting point lay within 160 to 162 °C.
`Cc1cc(NS(=O)(=O)c2ccc(OC(F)(F)F)cc2)cc(C)c1S(=O)(=O)C[N+](=O)[O-]` [Example 36, N-[3,5-Dimethyl-4-[(nitromethyl)sulphonyl]phenyl]-4-(trifluoromethoxy)benzenesulphonamide] displayed a melting point of 180 to 182 °C.
With `Cc1ccccc1CS(=O)(=O)Nc1cc(C)c(S(=O)(=O)C[N+](=O)[O-])c(C)c1` [Example 51, N-[3,5-Dimethyl-4-[(nitromethyl)sulphonyl]phenyl]-(2-methylphenyl)methanesulphonamide] the figure was 167 to 169 °C.
`Cc1cc(NC(=O)C(=O)Nc2cc(C)c(S(=O)(=O)C[N+](=O)[O-])c(C)c2)cc(C)c1S(=O)(=O)C[N+](=O)[O-]` gave a melting point of 246 to 248 °C.
With `Cc1cc(NS(=O)(=O)c2ccc(S(C)(=O)=O)cc2)cc(C)c1S(=O)(=O)C[N+](=O)[O-]` [Example 18, N-[3,5-Dimethyl-4-[(nitromethyl)sulphonyl]phenyl]-4-(methylsulphonyl)benzenesulphonamide], the melting point lay within 192 to 194 °C.
